Reference: patent publication US8557814B2, “mTOR inhibitor salt forms” (OSI Pharmaceuticals, LLC, priority 2008, dated 2013)
Structures can show the parent of a compound that is named as a salt. Where two headings read alike, the source gives them in different places. Blank lines part the entries; values can stand above or below the molecule they belong to.

What was measured:
Solubility in water = assay type: physicochemical
mTOR = biological target: T1, mTOR (Homo sapiens, UniProt P42345); assay: mTOR cell-based mechanistic assay: inhibition of phosphorylation of 4E-BP1 (T37/46) in MDA-MB-231 cells; conditions: 3 h treatment
T1 construct: endogenous in cells; host or cells: MDA-MB-231 cells
Protocol: MDA-MB-231 cells were plated in 96 well plates at 2×10^4 cells/well in 90 uL of Complete growth medium and incubated at 37° C. overnight in a CO2 incubator. […] Cell lysates' were transferred to a 96-well plate coated with 4E-BP1 antibodies to capture phospho-4E-BP1 (T37/46) and incubated overnight at 4° C. The amount of phospho-4E-BP1 in each well is further measured by incubating the wells with anti-rabbit phospho-4E-BP1 (T37/46) antibodies and a corresponding goat anti-rabbit IgG conjugated to HRP. The amount of HRP present in each well is measured by a chemiluminescence method, which corresponds to amount of phospho-4E-BP1 in each well. IC50 values were determined using a 6-point dose response curve.

[1] = Stability at 40° C. and 75% RH; assay type: physicochemical; conditions: 30 days at 40° C. and 75% RH
[2] = Vapor sorption analysis (DVS), hygroscopicity; assay type: physicochemical

solubility in water (Solubility in water; sodium salt): > 30 mg/mL
Molecule: COc1cccc2cc(-c3nc([C@H]4CC[C@H](C(=O)O)CC4)n4ncnc(N)c34)[nH]c12 [Example 3, trans-4-[4-amino-5-(7-methoxy-1H-indol-2-yl)imidazo[5,1-f][1,2,4]triazin-7-yl]cyclohexanecarboxylic acid sodium salt]

IC50 (mTOR): ~1000 nM
Molecule: COc1cccc2cc(-c3nc([C@H]4CC[C@H](C(=O)O)CC4)n4ncnc(N)c34)[nH]c12 [trans-4-[4-amino-5-(7-methoxy-1H-indol-2-yl)-imidazo[5,1-f][1,2,4]triazin-7-yl]cyclohexanecarboxylic acid]

stability (degradation) [1]: no significant degradation
hygroscopicity (DVS) ([2]; at 90-95% RH): 2-4%
solubility in water (Solubility in water): approximately 6 mg/mL
Molecule: COc1cccc2cc(-c3nc([C@H]4CC[C@H](C(=O)O)CC4)n4ncnc(N)c34)[nH]c12 [Example 1, trans-4-[4-amino-5-(7-methoxy-1H-indol-2-yl)imidazo[5,1-f][1,2,4]triazin-7-yl]cyclohexane carboxylic acid tromethamine salt]

Molecule: trans-4-[4-amino-5-(7-methoxy-1H-indol-2-yl)imidazo[5,1-f][1,2,4]triazin-7-yl]cyclohexane carboxylic acid calcium salt [Example 2]
hygroscopicity, weight gain (DVS) ([2]; from 0 to 95% RH): 35%
